One series deals with T1, hERG potassium channel (Homo sapiens, UniProt Q12809).
T1 construct: purchased Thermo Fisher
The series is described as follows: hERG test (Predictor hERG Fluorescence Polarization Assay Kit). Type of series: binding. On the procedure: The effects of the crystalline forms of the compound of Formula (I) on hERG potassium channel were determined using a biochemical hERG assay kit based on fluorescence polarization technology (Predictor™ hERG Fluorescence Polarization Assay Kit, Thermo Fisher) to assess the potential of the crystalline form of the compound of Formula (I) in inducing cardiac QT interval prolongation.

Series [1] deals with STAT3 phosphorylation in Hep3B cells. The series is described as follows: Effect on JAK/STAT signaling pathway in Hep3B cells (IL-6 induced p-STAT3, AlphaLISA). The series is classed as cell-based. The settings on record: Homo sapiens, 0.5 h, IL-6 stimulation 30 min. On the procedure: After incubating the crystalline form of the compound of Formula (I) of the present invention with Hep3B cells in a 37° C., 5% CO2 incubator for 15 min, […] IL-6 was added. Incubation was continued for 30 min, and the cells were lysed. The lysate was added to AlphaLISA SureFire Ultra p-STAT3 (Tyr705) assay kit (PerkinElmer), incubated at room temperature in dark, and the signals emitted by the receptor microbeads after energy absorption were measured, and the half inhibitory concentration (IC50) of inhibiting STAT3 phosphorylation was calculated.

The nature of series [2]: Cytotoxicity (MTS) in HK-2. The series is classed as cell-based. The settings on record: HK-2 cells, human proximal tubular cell, 40 h incubation. The protocol:
(§1) The cells were plated at a concentration of 2×10^4 cells/well and incubated for 4 h at 37° C. in a 5% CO2 incubator. The crystalline form of the compound of Formula (I) of the present invention was added, and incubation was continued for 40 h. The incubation solution was removed, and a complete medium was added (100 μl/well) to each test well and incubated in the incubator for 0.5 to 1 h. Then, MTS solution was added (10 μl/well) thereto, and incubation was continued for 4 h in the incubator. The absorbance at 450 nm was measured, and the IC50 value was calculated.

Series [3] deals with Collagen-Induced Arthritis (CIA) model. The series is described as follows: Efficacy in collagen-induced arthritis (CIA) model in rats. To be noted: for Mean pathological score, Joint cartilage erosion (X ± SD) / Mean pathological score, Joint inflammation (X ± SD) / Mean pathological score, Synovial hyperplasia/pannus (X ± SD): hind paw joints. Type of series: in vivo, rat. Details: Mean pathological score, Joint inflammation (X ± SD) / Mean pathological score, Joint cartilage erosion (X ± SD) / Mean pathological score, Synovial hyperplasia/pannus (X ± SD): scale not given here. On the procedure:
After female Lewis rats were immunized twice with bovine type II collagen to form a CIA model, the rats were randomly divided into 4 groups (the vehicle group, and the groups of the crystalline form of the compound of Formula (I) of the present invention (1 mg/kg, 3 mg/kg, 10 mg/kg), respectively), and unmodeled rats were taken as the normal group. The corresponding drugs were administered by gavage once a day for 14 days (D15-D28). The hind paw was scored for arthritis index during the administration (the results are shown in Table 5); and after the end of the experiment, the ankle joint was taken for pathologic analysis (the average pathological scores of the hind paw joints of the rats are shown in Table 6).

Series [4] can be described thus: Viscous fluidity test (bulk density, angle of repose). Type of series: physicochemical. The settings on record: for angle of repose: funnel method, tan α=H/R; for most apparent density (bulk density): without applying any external force. On the procedure: A measuring container was filled with crystalline form B (1.97 g) of the compound of Formula (I), and the volume was determined to be 7.62 ml without applying any external force. The most apparent density (i.e., bulk density) was calculated to be 0.26 g/ml. The powder was slowly added into a funnel from above so that the material leaking from the bottom of the funnel formed a conical stack on the horizontal surface, and the diameter of the bottom of the cone (2R) and the height of the cone (H) were measured to be 3.59 cm and 1.79 cm, respectively. And the angle of repose was calculated to be 45 degrees according to the formula for calculating the angle of repose (tan α=H/R).
The most apparent density (i.e., bulk density) was calculated to be 0.43 g/ml. The powder was slowly added into a funnel from above so that the material leaking from the bottom of the funnel formed a conical stack on the horizontal surface, and the diameter of the bottom of the cone (2R) and the height of the cone were measured to be 2.91 cm and 1.46 cm, respectively. And the angle of repose was calculated to be 45 degrees according to the formula for calculating the angle of repose (tan α=H/R).

Series [5] can be described thus: Cytotoxicity (MTS) in HEK293. Type of series: cell-based. The settings on record: HEK293 cells, human embryonic kidney cell, 40 h incubation. The protocol:
as §1

Another series deals with TYK2 (Homo sapiens, UniProt P29597). Put plainly: TYK2 enzymatic activity inhibition assay (HTRF KinEASE-TK). Type of series: biochemical.
Series [6] can be described thus: Cytotoxicity (MTS) in N2a. Type of series: cell-based. The settings on record: mouse, N2a neuroblastoma cells, neuroblastoma cell, 40 h incubation. The protocol: as §1
The target of a further series is T2, JAK3 (Homo sapiens, UniProt P52333).
T2 sequence (P52333 1-1124): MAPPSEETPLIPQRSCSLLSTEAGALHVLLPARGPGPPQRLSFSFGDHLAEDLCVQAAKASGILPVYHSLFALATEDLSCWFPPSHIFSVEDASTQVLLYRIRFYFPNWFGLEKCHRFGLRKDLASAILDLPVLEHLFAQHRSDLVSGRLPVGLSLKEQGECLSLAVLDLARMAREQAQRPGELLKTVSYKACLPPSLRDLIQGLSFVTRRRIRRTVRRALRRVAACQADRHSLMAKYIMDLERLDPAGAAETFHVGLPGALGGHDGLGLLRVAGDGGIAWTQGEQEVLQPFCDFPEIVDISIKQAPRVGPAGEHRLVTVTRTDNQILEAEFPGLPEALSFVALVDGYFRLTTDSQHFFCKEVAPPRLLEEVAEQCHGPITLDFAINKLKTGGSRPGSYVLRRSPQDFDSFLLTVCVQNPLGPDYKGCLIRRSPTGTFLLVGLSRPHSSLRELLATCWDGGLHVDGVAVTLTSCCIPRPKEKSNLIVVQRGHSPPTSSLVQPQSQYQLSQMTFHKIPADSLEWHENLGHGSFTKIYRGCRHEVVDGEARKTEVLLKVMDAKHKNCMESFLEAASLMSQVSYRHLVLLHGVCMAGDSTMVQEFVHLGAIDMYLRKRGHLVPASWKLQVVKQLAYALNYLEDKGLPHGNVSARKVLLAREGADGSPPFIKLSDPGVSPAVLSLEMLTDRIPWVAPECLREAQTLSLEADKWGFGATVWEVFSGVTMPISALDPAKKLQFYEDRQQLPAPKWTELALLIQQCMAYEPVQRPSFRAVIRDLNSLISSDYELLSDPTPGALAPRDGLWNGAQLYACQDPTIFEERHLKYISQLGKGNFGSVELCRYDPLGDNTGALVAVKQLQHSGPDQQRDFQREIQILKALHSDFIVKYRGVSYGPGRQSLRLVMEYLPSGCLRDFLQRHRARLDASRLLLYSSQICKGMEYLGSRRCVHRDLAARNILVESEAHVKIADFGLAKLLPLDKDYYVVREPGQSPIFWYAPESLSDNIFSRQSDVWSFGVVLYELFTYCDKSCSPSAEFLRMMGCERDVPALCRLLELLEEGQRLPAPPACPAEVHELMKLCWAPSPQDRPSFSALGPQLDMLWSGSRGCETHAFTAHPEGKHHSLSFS
The series is described as follows: JAK3 enzymatic activity inhibition assay (HTRF KinEASE-TK). The series is classed as biochemical.

Series [7] is described as follows: Physicochemical stability (high temperature, high humidity, light; XRPD and HPLC). To be noted: XRPD.
Where [8] appears, read: 1 mg/kg gavage once a day for 14 days.
The mark [9] stands for this setting: 3 mg/kg gavage once a day for 14 days.
[10] abbreviates: 10 mg/kg gavage once a day for 14 days.
Setting [11] is: high humidity (92.5%) for 5 days.
Setting [12] is: high temperature (60° C.) for 5 days.

Here are results for two compounds from US11066403B2, “Solid form of azetidine derivative and preparation method therefor and use thereof” (SICHUAN KELUN-BIOTECH BIOPHARMACEUTICAL CO., LTD., priority 2017, dated 2021).

Each structure is given as a SMILES string.

T1 sequence (Q12809 whole entry): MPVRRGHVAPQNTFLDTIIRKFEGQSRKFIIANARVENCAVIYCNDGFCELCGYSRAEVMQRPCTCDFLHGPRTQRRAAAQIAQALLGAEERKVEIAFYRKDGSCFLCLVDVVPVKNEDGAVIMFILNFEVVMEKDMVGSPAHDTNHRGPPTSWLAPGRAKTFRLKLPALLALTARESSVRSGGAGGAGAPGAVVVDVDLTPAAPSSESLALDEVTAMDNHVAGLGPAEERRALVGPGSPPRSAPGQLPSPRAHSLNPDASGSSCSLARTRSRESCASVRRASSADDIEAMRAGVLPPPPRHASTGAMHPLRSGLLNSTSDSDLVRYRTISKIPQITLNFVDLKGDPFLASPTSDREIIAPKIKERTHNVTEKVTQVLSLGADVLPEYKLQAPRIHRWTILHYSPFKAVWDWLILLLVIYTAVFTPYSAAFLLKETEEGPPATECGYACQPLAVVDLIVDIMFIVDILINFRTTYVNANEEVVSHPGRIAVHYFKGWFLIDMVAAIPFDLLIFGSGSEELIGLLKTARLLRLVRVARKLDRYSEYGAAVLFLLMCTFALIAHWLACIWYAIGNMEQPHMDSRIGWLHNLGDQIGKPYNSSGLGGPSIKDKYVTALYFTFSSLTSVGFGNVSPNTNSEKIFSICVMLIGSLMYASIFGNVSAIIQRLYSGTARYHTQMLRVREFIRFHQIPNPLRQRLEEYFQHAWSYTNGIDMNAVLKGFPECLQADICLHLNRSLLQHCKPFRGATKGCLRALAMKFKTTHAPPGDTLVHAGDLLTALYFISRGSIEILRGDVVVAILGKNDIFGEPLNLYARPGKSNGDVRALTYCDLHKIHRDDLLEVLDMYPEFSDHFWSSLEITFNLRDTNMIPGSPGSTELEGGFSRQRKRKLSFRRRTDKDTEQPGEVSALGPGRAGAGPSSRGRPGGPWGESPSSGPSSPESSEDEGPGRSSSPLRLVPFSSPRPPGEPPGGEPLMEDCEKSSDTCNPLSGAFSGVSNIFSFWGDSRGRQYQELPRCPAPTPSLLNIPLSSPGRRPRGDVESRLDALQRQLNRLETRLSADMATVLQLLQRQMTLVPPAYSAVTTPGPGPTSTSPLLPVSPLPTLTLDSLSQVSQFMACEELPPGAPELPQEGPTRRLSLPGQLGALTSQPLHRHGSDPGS
Chain of TYK2 (P29597 whole entry, species assumed): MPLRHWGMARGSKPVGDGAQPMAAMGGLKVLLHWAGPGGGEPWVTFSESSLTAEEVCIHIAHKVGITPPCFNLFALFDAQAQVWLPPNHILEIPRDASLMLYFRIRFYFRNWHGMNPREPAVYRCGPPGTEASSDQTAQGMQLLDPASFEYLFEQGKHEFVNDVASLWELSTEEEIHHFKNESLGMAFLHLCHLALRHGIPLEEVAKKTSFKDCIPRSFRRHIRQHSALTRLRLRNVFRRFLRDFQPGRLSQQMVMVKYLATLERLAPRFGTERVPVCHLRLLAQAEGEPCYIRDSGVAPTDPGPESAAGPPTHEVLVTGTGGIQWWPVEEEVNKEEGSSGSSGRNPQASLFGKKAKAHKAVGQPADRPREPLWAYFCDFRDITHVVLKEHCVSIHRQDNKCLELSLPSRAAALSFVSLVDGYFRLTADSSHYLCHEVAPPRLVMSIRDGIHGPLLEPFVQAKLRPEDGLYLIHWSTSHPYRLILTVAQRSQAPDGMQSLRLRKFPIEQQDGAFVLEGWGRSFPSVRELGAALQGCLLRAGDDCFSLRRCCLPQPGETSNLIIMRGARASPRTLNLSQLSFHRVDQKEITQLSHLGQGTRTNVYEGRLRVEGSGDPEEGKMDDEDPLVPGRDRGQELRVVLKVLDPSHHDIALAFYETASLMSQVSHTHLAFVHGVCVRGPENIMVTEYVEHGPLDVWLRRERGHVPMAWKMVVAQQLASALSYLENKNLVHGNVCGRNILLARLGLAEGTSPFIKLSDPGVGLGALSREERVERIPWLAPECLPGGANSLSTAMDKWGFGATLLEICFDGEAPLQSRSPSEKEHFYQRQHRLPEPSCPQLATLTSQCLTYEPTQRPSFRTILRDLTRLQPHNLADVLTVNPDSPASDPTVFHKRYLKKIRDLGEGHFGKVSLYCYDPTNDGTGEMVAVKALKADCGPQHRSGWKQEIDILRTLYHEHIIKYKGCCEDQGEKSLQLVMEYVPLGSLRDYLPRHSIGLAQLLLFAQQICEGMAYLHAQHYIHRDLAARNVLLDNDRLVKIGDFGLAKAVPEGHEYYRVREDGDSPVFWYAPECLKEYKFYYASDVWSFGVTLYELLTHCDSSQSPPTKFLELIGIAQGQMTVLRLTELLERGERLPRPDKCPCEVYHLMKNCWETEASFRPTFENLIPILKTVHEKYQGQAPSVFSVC
Experimental for JAK3: (§2) The crystalline form of the compound of Formula (I), an enzyme, a substrate and ATP were diluted to desired concentrations with the buffer in the HTRF® KinEASE™-TK kit (Cisbio). The former three agents were added into a multiple well plate, and incubated at room temperature after being mixed homogeneously. ATP was added to initiate the kinase reaction, and incubation at room temperature was performed. The test reagent in the kit was used to terminate the reaction, and incubation was continued at room temperature. After the incubation was completed, fluorescence signals at 620 nm and 665 nm were measured using a BMG PHERAstar FS microplate reader, and the half inhibitory concentration (IC50) values were calculated.
Experimental for TYK2: as §2

For the compound `CCS(=O)(=O)N1CC(CC#N)(n2cc(-c3ccnc4[nH]ccc34)cn2)C1` [Crystalline form A, 2-(3-(4-(1H-pyrrolo[2,3-b]pyridin-4-yl)-1H-pyrazol-1-yl)-1-(ethylsulfonyl)azetidin-3-yl)acetonitrile], the inhibition at 2 h, 30 µM on hERG potassium channel (human, probe tracer with high hERG affinity, at 30 μM, read-out: hERG inhibition rate) was less than 50%. Moreover, the IC50 was more than 30 µM at hERG potassium channel (test concentration 3, 10 and 30 μM, 25° C., 2 h); 0.123 ± 0.0183 µM in [1]; 0.0228 ± 0.00403 µM against TYK2; 0.0161 ± 0.00155 µM against JAK3. Further, the IC50 at 40 h was 23.1 µM in series [2], more than 50 µM in series [5] and 33.6 µM in series [6]. In [3] (1 mg/kg), the “Effect on mean pathological score of synovial hyperplasia/pannus (in words)” value is “to some extent”. Also, the “Effect on mean pathological scores of joint inflammation and joint cartilage erosion (in words)” value in [3] (1 mg/kg) is “significantly reduce”. Also, the “Mean pathological score, Joint cartilage erosion (X ± SD)” value in series [3] (setting [8]) came out at 5.10 ± 1.52; in [3] (setting [9]), 2.20 ± 1.93; in series [3] (setting [10]), 0.10 ± 0.32. The “Mean pathological score, Joint inflammation (X ± SD)” value in [3] (setting [8]) is recorded as 4.00 ± 1.25; in series [3] (setting [9]), 2.60 ± 1.90; in [3] (setting [10]), 0.30 ± 0.67. For the same compound, the figures for the “Mean pathological score, Synovial hyperplasia/pannus (X ± SD)” value in series [3] (setting [8]), in [3] (setting [9]) and in series [3] (setting [10]) were 6.90 ± 0.99, 4.80 ± 1.40 and 2.20 ± 0.42, respectively. Further, the “Effect on mean pathological scores of joint inflammation, joint cartilage erosion and synovial hyperplasia/pannus (in words)” value in series [3] (3 mg/kg) and in [3] (10 mg/kg) was “significantly reduce” each time. In addition, the particle fluidity result in series [4] was “good particle fluidity”. The angle of repose in series [4] is on record as 45 degrees. Also, the “most apparent density (bulk density)” value in series [4] is 0.43 g/mL. In addition, the “Changes in crystalline form” value in [7] (setting [11]), in series [7] (setting [12]) and in series [7] (light condition for 5 days) was “No” each time.
For `CCS(=O)(=O)N1CC(CC#N)(n2cc(-c3ccnc4[nH]ccc34)cn2)C1` [Crystalline form B, 2-(3-(4-(1H-pyrrolo[2,3-b]pyridin-4-yl)-1H-pyrazol-1-yl)-1-(ethylsulfonyl)azetidin-3-yl)acetonitrile], in series [4], the particle fluidity entry is “good particle fluidity”, the angle of repose worked out at 45 degrees and the “most apparent density (bulk density)” value was 0.26 g/mL. In addition, the “Changes in crystalline form” value in [7] (setting [11]) is listed as “No”. In addition, the “Changes in crystalline form” value in series [7] (setting [12]) is on record as “No”. Besides, in series [7] (light condition for 5 days), the “Changes in crystalline form” value was “No”.
